Results published in paper PMC7640924 (Bioorganic & Medicinal Chemistry Letters, 2020).

Tested on: SARS-CoV-2
Test: Anti-SARS-CoV-2 activity, cellular phenotypic screening
Format: cell-based
Conditions: Vero cells
In the case of `O=C(CN1C(C(=O)c2ccc(F)cc2)=C(O)c2ccccc2S1(=O)=O)Nc1ccccc1` [Compound 4a, 2-(3-(4-fluorobenzoyl)-4-hydroxy-1,1-dioxido-2H-benzo[e][1,2]thiazin-2-yl)-N-phenylacetamide], the “anti-SARS-CoV-2 activity (in words)” value is reported as “no inhibitory effect”. In the case of `O=C(CN1C(C(=O)c2ccc(F)cc2)=C(O)c2ccccc2S1(=O)=O)Nc1ccccc1Cl` [Compound 4b, N-(2-Chlorophenyl)-2-(3-(4-fluorobenzoyl)-4-hydroxy-1,1-dioxido-2H-benzo[e][1,2]thiazin-2-yl)acetamide], the “anti-SARS-CoV-2 activity (in words)” value is reported as “no inhibitory effect”. For `CCNC(=O)CN1C(C(=O)c2ccccc2)=C(O)c2ccccc2S1(=O)=O` [Compound 4f, 2-(3-Benzoyl-4-hydroxy-1,1-dioxido-2H-benzo[e][1,2]thiazin-2-yl)-N-ethylacetamide], the “anti-SARS-CoV-2 activity (in words)” value was “detrimental for anti-SARS-CoV-2 activities”. For `O=C(C1=C(O)c2ccccc2S(=O)(=O)N1Cc1ccccc1)c1ccccc1` [Compound 5a, (2-Benzyl-4-hydroxy-1,1-dioxido-2H-benzo[e][1,2]thiazin-3-yl)(phenyl)methanone], the “anti-SARS-CoV-2 activity (in words)” value was “no anti-SARS-CoV-2 activities”. With `N#Cc1cccc(C(=O)C2=C(O)c3ccccc3S(=O)(=O)N2CC(=O)c2ccc(F)c(Cl)c2)c1` [Compound 5b, 3-(2-(2-(3-Chloro-4-fluorophenyl)-2-oxoethyl)-4-hydroxy-1,1-dioxido-2H-benzo[e][1,2]thiazine-3-carbonyl)benzonitrile] the “anti-SARS-CoV-2 activity (in words)” value was “no anti-SARS-CoV-2 activities”. With `N#Cc1ccc(C(=O)C2=C(O)c3ccccc3S(=O)(=O)N2CC(=O)c2ccc(F)c(Cl)c2)cc1` [Compound 5c, 4-(2-(2-(3-Chloro-4-fluorophenyl)-2-oxoethyl)-4-hydroxy-1,1-dioxido-2H-benzo[e][1,2]thiazine-3-carbonyl)benzonitrile] the “anti-SARS-CoV-2 activity (in words)” value was “no anti-SARS-CoV-2 activities”. In the case of `O=C(O)/C=C/N1C(C(=O)c2ccc(F)c(Cl)c2)=C(O)c2ccccc2S1(=O)=O` [Compound 7, (E)-3-(3-(3-Chloro-4-fluorobenzoyl)-4-hydroxy-1,1-dioxido-2H-benzo[e][1,2]thiazin-2-yl)acrylic acid], the “anti-SARS-CoV-2 activity (in words)” value is reported as “no antiviral effect”.

Target: hERG (Homo sapiens, UniProt Q12809)
Sequence (Q12809 whole entry): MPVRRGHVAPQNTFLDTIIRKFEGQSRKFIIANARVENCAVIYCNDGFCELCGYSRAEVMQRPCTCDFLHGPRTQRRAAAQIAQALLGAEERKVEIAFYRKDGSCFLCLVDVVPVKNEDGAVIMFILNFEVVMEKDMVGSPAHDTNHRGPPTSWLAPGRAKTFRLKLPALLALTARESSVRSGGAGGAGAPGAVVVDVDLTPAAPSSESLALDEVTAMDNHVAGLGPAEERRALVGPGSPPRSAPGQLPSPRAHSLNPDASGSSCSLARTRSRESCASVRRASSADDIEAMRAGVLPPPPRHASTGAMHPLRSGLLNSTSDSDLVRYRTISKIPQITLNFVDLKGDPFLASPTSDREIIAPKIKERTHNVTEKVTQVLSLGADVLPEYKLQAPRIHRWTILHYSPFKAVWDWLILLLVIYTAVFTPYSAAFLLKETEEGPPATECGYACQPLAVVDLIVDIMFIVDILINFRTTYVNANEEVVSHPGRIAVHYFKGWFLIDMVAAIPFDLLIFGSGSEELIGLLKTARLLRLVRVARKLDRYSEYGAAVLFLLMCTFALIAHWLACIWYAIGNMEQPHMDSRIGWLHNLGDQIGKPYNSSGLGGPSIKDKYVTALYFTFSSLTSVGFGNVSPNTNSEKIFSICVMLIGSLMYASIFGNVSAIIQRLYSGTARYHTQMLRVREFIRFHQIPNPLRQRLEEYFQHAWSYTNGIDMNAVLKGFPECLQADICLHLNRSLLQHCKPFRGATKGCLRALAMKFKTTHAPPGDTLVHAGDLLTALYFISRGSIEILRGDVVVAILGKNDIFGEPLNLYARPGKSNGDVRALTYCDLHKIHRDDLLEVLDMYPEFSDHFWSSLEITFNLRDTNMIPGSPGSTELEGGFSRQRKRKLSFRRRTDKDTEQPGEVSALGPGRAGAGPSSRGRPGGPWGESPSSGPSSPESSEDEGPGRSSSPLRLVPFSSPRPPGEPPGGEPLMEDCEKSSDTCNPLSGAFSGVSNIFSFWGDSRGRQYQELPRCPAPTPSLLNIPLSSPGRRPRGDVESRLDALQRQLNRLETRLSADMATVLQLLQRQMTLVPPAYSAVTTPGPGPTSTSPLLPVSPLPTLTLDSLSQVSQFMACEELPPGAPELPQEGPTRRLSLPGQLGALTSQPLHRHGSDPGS
Test: hERG inhibition
Format: binding
Conditions: not given
For `O=C(CN1C(C(=O)c2ccc(F)c(Cl)c2)=C(O)c2ccc(F)cc2S1(=O)=O)Nc1ccc(C(F)(F)F)cc1` [Compound 13c, 2-(3-(3-Chloro-4-fluorobenzoyl)-7-fluoro-4-hydroxy-1,1-dioxido-2H-benzo[e][1,2]thiazin-2-yl)-N-(4-(trifluoromethyl)phenyl)acetamide], the “hERG binding (in words)” value was “low binding with hERG”.

Tested on: not listed separately
Test: Microsomal stability
Format: in vitro ADME
Conditions: human
For `O=C(CN1C(C(=O)c2ccc(F)c(Cl)c2)=C(O)c2ccc(F)cc2S1(=O)=O)Nc1ccc(C(F)(F)F)cc1` [Compound 13c, 2-(3-(3-Chloro-4-fluorobenzoyl)-7-fluoro-4-hydroxy-1,1-dioxido-2H-benzo[e][1,2]thiazin-2-yl)-N-(4-(trifluoromethyl)phenyl)acetamide], the “microsomal stability (in words)” value was “good microsomal stability”.
